Earlier results, collected in patent publication US6384081B2, “Treatment of diseases of the eye characterized by the formation of metalloproteinase” (priority 1998, dated 2002).
Like-named read-outs stand apart in the source and are kept apart here.

Experiments:
[1] = target: collagenase purified from culture medium of alkali-burned rabbit corneas
[2] = tested on: TIMP
[3] = tested on: collagenase
[4] = rabbit eye, 7 mg/kg intravenously
[5] = tested on: epithelial healing in the rabbit alkali-burn model; conditions: for mean percentage of epithelial defects: at 14 days

CCCC(NC(CC(C)C)C(=O)NC(Cc1ccccc1)C(=O)NC(C)C(N)=O)C(=O)O (stereo not drawn) [CH3(CH2)2(DL)CH-(COOH)-Leu-Phe-Ala-NH2]
IC50 ([1]; substrate not stated, read-out: IC50): 25 µM

CC(C)CC(CS)C(=O)NC(Cc1ccccc1)C(=O)NC(C)C(N)=O (stereo not drawn) [HSCH2(DL)CH[CH2 CH(CH3)2]CO-Phe-Ala-NH2]
IC50 ([1]; synthetic substrate Dnp-Pro-Leu-Gly-Leu-Trp-Ala-D-Arg-NH2, read-out: 50% inhibition (IC50)): ~0.01 µM

CC(=O)N[C@@H](CS)C(=O)O [N-acetylcysteine]
IC50 ([1]; natural substrate (collagen), read-out: IC50): < 10000 µM | IC50 ([1]; synthetic substrate, read-out: IC50): 2700 µM

CC(CN1CC(=O)NC(=O)C1)N1CC(=O)NC(=O)C1 (centres unmarked) [Razoxane]
TIMP production [2]: stimulated TIMP production | collagenase production [3]: inhibited collagenase production

O=C1O[C@H]([C@@H](O)CO)C([O-])=C1O.[Na+] [Sodium ascorbate]
inhibition of collagenase-mediated hydrolysis ([1]; either collagen or the synthetic substrate): did not inhibit

CCC[C@@H]1C[C@@H](C(=O)N[C@@H]([C@H]2O[C@H](SC)[C@H](O)[C@@H](O)[C@H]2O)[C@H](C)Cl)N(C)C1 [clindamycin]
intraocular penetration (sub-conjunctival, retrobulbar and intramuscular, one shot, healthy rabbit eye): best results

C[C@H]1c2cccc(O)c2C(=O)C2=C(O)[C@]3(O)C(=O)C(C(N)=O)=C(O)[C@@H](N(C)C)[C@@H]3[C@@H](O)[C@@H]21 [doxycycline]
Doxycycline concentration in the cornea versus aqueous humor [4]: exceeded that in the aqueous humor | Vitreous body doxycycline concentration [4]: 0.3 microgram/g | penetrability into the tissues [4]: good penetrability | antibiotic concentration in all vascularized ocular structures ([4]; long-lasting): ≥ 1 microgram/g

O=C([O-])CC(O)(CC(=O)[O-])C(=O)[O-].[Na+].[Na+].[Na+] [sodium citrate]
reversal of inhibition by excess Ca2+ ([1]; excess Ca2+): could be reversed by excess Ca2+

doxycycline hyclate
mean percentage of epithelial defects ([5]; 1.5 mg/kg orally daily for 14 days): 50.7% | mean percentage of epithelial defects ([5]; 5 mg/kg orally daily for 14 days): 7.1% | corneal reepithelialization ([5]; 5 mg/kg/day, systemically administered): promotes corneal reepithelialization

spiramycin
intraocular penetration (rabbit, in vivo): best results
